In PubChem BioAssay (NCI):
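Exposure lasted 48 hours, with cells grown in 96-well plates and compounds tested at five concentrations. TGI marks complete inhibition of growth.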

Experiments:
Assay in all cases: DTP human tumour cell line panel, 48 h
[1] = test system: 786-0 renal
[2] = test system: A498 renal
[3] = test system: A549 NSCLC
[4] = test system: ACHN renal
[5] = test system: BT-549 breast
[6] = test system: CAKI-1 renal
[7] = test system: CCRF-CEM leukemia
[8] = test system: COLO 205 colon
[9] = test system: DU-145 prostate
[10] = test system: EKVX NSCLC
[11] = test system: HCC-2998 colon
[12] = test system: HCT-116 colon
[13] = test system: HCT-15 colon
[14] = test system: HL-60(TB) leukemia
[15] = test system: HOP-62 NSCLC
[16] = test system: HOP-92 NSCLC
[17] = test system: HS 578T breast
[18] = test system: HT29 colon
[19] = test system: IGROV1 ovarian
[20] = test system: K-562 leukemia
[21] = test system: KM12 colon
[22] = test system: LOX IMVI melanoma
[23] = test system: M14 melanoma
[24] = test system: MALME-3M melanoma
[25] = test system: MCF7 breast
[26] = test system: MDA-MB-231 breast
[27] = test system: MDA-MB-435
[28] = test system: MDA-N
[29] = test system: MOLT-4 leukemia
[30] = test system: NCI-H226 lung
[31] = test system: NCI-H23 lung
[32] = test system: NCI-H460 lung
[33] = test system: NCI-H522 lung
[34] = test system: NCI/ADR-RES ovarian
[35] = test system: OVCAR-3 ovarian
[36] = test system: OVCAR-4 ovarian
[37] = test system: OVCAR-5 ovarian
[38] = test system: OVCAR-8 ovarian
[39] = test system: PC-3 prostate
[40] = test system: RPMI-8226 leukemia
[41] = test system: RXF 393 renal
[42] = test system: SF-268 CNS
[43] = test system: SF-295 CNS
[44] = test system: SF-539 CNS
[45] = test system: SK-MEL-2 melanoma
[46] = test system: SK-MEL-28 melanoma
[47] = test system: SK-MEL-5 melanoma
[48] = test system: SK-OV-3 ovarian
[49] = test system: SN12C renal
[50] = test system: SNB-19 CNS
[51] = test system: SNB-75 CNS
[52] = test system: SW-620 colon
[53] = test system: T-47D breast
[54] = test system: TK-10 renal
[55] = test system: U251 CNS
[56] = test system: UACC-257 melanoma
[57] = test system: UACC-62 melanoma
[58] = test system: UO-31 renal

O=C(CC(=O)Nc1ccccc1Cl)NNC(Sc1ccccc1)c1cc(N=Nc2ccc(Br)cc2)ccc1O (stereo not drawn)
TGI [1]: 2.42 µM
TGI [2]: 5.6 µM
TGI [3]: > 10 µM
TGI [4]: > 10 µM
TGI [5]: 5.99 µM
TGI [6]: 7.19 µM
TGI [7]: 6.21 µM
TGI [8]: > 10 µM
TGI [9]: > 10 µM
TGI [10]: > 10 µM
TGI [11]: > 10 µM
TGI [12]: 1.31 µM
TGI [13]: > 10 µM
TGI [14]: 1.1 µM
TGI [15]: 8.67 µM
TGI [16]: 6.68 µM
TGI [17]: 7.18 µM
TGI [18]: > 10 µM
TGI [19]: 5.53 µM
TGI [20]: 6.63 µM
TGI [21]: 5.04 µM
TGI [22]: 3.15 µM
TGI [23]: 2.68 µM
TGI [24]: 8.73 µM
TGI [25]: 3.22 µM
TGI [26]: 8.68 µM
TGI [27]: > 10 µM
TGI [28]: > 10 µM
TGI [29]: 1.75 µM
TGI [30]: 6.04 µM
TGI [31]: 7.39 µM
TGI [32]: 2.86 µM
TGI [33]: > 10 µM
TGI [34]: 5.61 µM
TGI [35]: 2.91 µM
TGI [36]: 5.98 µM
TGI [37]: > 10 µM
TGI [38]: 2.39 µM
TGI [39]: 6.21 µM
TGI [40]: > 10 µM
TGI [41]: 5.82 µM
TGI [42]: > 10 µM
TGI [43]: 8.39 µM
TGI [44]: 3.8 µM
TGI [45]: > 10 µM
TGI [46]: > 10 µM
TGI [47]: 3.95 µM
TGI [48]: > 10 µM
TGI [49]: > 10 µM
TGI [50]: > 10 µM
TGI [51]: > 10 µM
TGI [52]: 2.77 µM
TGI [53]: 9.57 µM
TGI [54]: 9.08 µM
TGI [55]: 8.26 µM
TGI [56]: > 10 µM
TGI [57]: 3.9 µM
TGI [58]: 3.96 µM
